Test results taken from patent US8192962B2, “Processes for detecting toxic substances” (Daikin Industries, Ltd., priority 2001, dated 2012).

Tested on: Energy system protein genes
Experiment: DNA chip mRNA expression in yeast, energy system protein genes (Table 4)
Assay type: cell-based, Saccharomyces cerevisiae S288C
In short: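 S. cerevisiae S288C grown at 25° C. in YPD to log phase, then exposed 2 h to a toxicant at a growth-inhibiting, non-lethal concentration; untreated cells as control. Poly(A) mRNA reverse-transcribed with Cy3-dUTP or Cy5-dUTP, hybridized >12 h at 65° C. to whole-genome yeast DNA chip; value = fluorescence ratio treated/untreated.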

Measured: The level of expressed mRNA in the presence of chemical substance/The level of expressed mRNA in the absence of chemical substance

O=[N+]([O-])c1cc[n+]([O-])c2ccccc12 [(5), 4-nitroquinolin-N-oxide]
1.1: yeast gene YCR012W | yeast gene YDR001C | yeast gene YDR231C | yeast gene YGL018C, cells incubated two hours with the chemical substance | yeast gene YGL205W, cells incubated two hours with the chemical substance | yeast gene YGR192C | yeast gene YKR097W | yeast gene YPL171C
0.7: yeast gene YER178W | yeast gene YGL256W, cells incubated two hours with the chemical substance | yeast gene YGR062C, cells incubated two hours with the chemical substance, 25° C., YPD medium | yeast gene YJL052W | yeast gene YJR155W | yeast gene YLR395C, cells incubated two hours with the chemical substance | yeast gene YMR323W, cells incubated two hours with the chemical substance
1.2: yeast gene YAL060W | yeast gene YDR079W, cells incubated two hours with the chemical substance | yeast gene YDR529C, cells incubated two hours with the chemical substance | yeast gene YGR254W | yeast gene YHR179W | yeast gene YJR009C | yeast gene YLR345W | yeast gene YMR118C | yeast gene YMR205C, cells incubated two hours with the chemical substance | yeast gene YPL275W, cells incubated two hours with the chemical substance
0.8: yeast gene YBR185C, cells incubated two hours with the chemical substance | yeast gene YGR244C | yeast gene YJL216C, cells incubated two hours with the chemical substance | yeast gene YJR048W | yeast gene YJR121W, cells incubated two hours with the chemical substance | yeast gene YKL148C, cells incubated two hours with the chemical substance | yeast gene YKR058W, cells incubated two hours with the chemical substance, 25° C., YPD medium | yeast gene YMR073C, cells incubated two hours with the chemical substance | yeast gene YNL241C
1.9: yeast gene YDR377W, cells incubated two hours with the chemical substance | yeast gene YOL086C, cells incubated two hours with the chemical substance
1.5: yeast gene YKL016C, cells incubated two hours with the chemical substance | yeast gene YKL141W, cells incubated two hours with the chemical substance | yeast gene YPL031C, cells incubated two hours with the chemical substance | yeast gene YPL088W | yeast gene YPL276W, cells incubated two hours with the chemical substance
0.5: yeast gene YCL040W | yeast gene YDL174C
1.4: yeast gene YOR142W, cells incubated two hours with the chemical substance
1.3: yeast gene YBR221C, cells incubated two hours with the chemical substance | yeast gene YDL078C, cells incubated two hours with the chemical substance | yeast gene YDR298C, cells incubated two hours with the chemical substance | yeast gene YEL024W, cells incubated two hours with the chemical substance | yeast gene YGL187C, cells incubated two hours with the chemical substance | yeast gene YLR134W, cells incubated two hours with the chemical substance | yeast gene YOR388C, cells incubated two hours with the chemical substance | yeast gene YPL240C
1.0: yeast gene YBL099W, cells incubated two hours with the chemical substance | yeast gene YCR046C, cells incubated two hours with the chemical substance | yeast gene YDL107W, cells incubated two hours with the chemical substance | yeast gene YGR087C, cells incubated two hours with the chemical substance | yeast gene YGR174C, cells incubated two hours with the chemical substance | yeast gene YIL160C | yeast gene YJL121C, cells incubated two hours with the chemical substance | yeast gene YKR009C, cells incubated two hours with the chemical substance | yeast gene YLR377C, cells incubated two hours with the chemical substance | yeast gene YMR267W, cells incubated two hours with the chemical substance, 25° C., YPD medium | yeast gene YOR178C, cells incubated two hours with the chemical substance
0.6: yeast gene YLR304C, cells incubated two hours with the chemical substance | yeast gene YML120C, cells incubated two hours with the chemical substance | yeast gene YNL071W | yeast gene YPL262W, cells incubated two hours with the chemical substance
1.7: yeast gene YDL021W | yeast gene YDL181W, cells incubated two hours with the chemical substance | yeast gene YLR044C, cells incubated two hours with the chemical substance | yeast gene YML129C, cells incubated two hours with the chemical substance
0.9: yeast gene YBR001C, cells incubated two hours with the chemical substance | yeast gene YCR105W, cells incubated two hours with the chemical substance | yeast gene YDR050C, cells incubated two hours with the chemical substance | yeast gene YDR178W, cells incubated two hours with the chemical substance | yeast gene YEL039C, cells incubated two hours with the chemical substance | yeast gene YFL057C | yeast gene YFR053C | yeast gene YGL062W | yeast gene YGL191W, cells incubated two hours with the chemical substance | yeast gene YGR008C | yeast gene YGR043C | yeast gene YLR258W, cells incubated two hours with the chemical substance | yeast gene YML087C | yeast gene YMR261C, cells incubated two hours with the chemical substance | yeast gene YNL202W, cells incubated two hours with the chemical substance | yeast gene YOL165C | yeast gene YPR048W, cells incubated two hours with the chemical substance | yeast gene YPR184W, cells incubated two hours with the chemical substance
1.6: yeast gene YBL058W, cells incubated two hours with the chemical substance | yeast gene YIR031C, cells incubated two hours with the chemical substance | yeast gene YJL166W, cells incubated two hours with the chemical substance | yeast gene YKL060C, cells incubated two hours with the chemical substance | yeast gene YLL041C, cells incubated two hours with the chemical substance | yeast gene YLR284C, cells incubated two hours with the chemical substance | yeast gene YLR354C, cells incubated two hours with the chemical substance | yeast gene YNL331C | yeast gene YPL061W, cells incubated two hours with the chemical substance
2.2: yeast gene YLR295C, cells incubated two hours with the chemical substance, 25° C., YPD medium
1.8: yeast gene YLR038C, cells incubated two hours with the chemical substance
2.0: yeast gene YDL067C, cells incubated two hours with the chemical substance
